Marks after values point to notes of the source that are not given here.
Experiments:
Format in all cases: in vivo
[1] = system: spleen CD4+ IL-17A+ T lymphocytes; assay: Spleen CD4+ IL-17A+ T lymphocytes in SS model mice (FIG. 4)
Text: FIG. 4 Effects of CP-25 on spleen CD4^+ IL-17A^+ T lymphocytes in SS model mice.

[2] = system: spleen CD4+ CD25+FOXP3+ T lymphocytes; assay: Spleen CD4+ CD25+ FOXP3+ T lymphocytes in SS model mice (FIG. 5, 6); conditions: FIG. 6
Text: FIG. 5 Effects of CP-25 on spleen CD4^+ CD25^+FOXP3^+ T lymphocytes in SS model mice.
FIG. 6 Effects of CP-25 on spleen CD4^+ CD25^+FOXP3^+ T lymphocytes in SS model mice.

[3] = system: submaxillary gland in SS mice; assay: Histopathological examination and grading of submaxillary gland in SS mice (H&E, Chisholm-Mason scale); conditions: for Score: mice with submaxillary gland pathology Grade 0 / Score: mice with submaxillary gland pathology Grade I / Score: mice with submaxillary gland pathology Grade II / Score: mice with submaxillary gland pathology Grade III / Score: mice with submaxillary gland pathology Grade IV: two weeks of administration, four mice of each group
Protocol: Mice were sacrificed after two weeks of administration, and then submaxillary glands of four mice of each group were removed and pathologically observed. At first, the submaxillary gland should be fixed in 10% buffered formalin for 24 h, followed by washing, dehydration and clearing, wax-filling, embedding, sectioning and finally H&E staining. […] Results were graded pathologically.
Note: The histological findings graded of submaxillary glands according to the Chisholm-Mason scale; grade 0, absence of lymphocytic infiltration; grade I, slight lymphocytic infiltration; grade II, moderate lymphocytic infiltration; grade III, one focus of lymphocytic infiltration per 4 mm^2 tissue; grade IV, more than one focus of lymphocytic infiltration per 4 mm^2 tissue (Note: One focus of lymphocytic infiltration has been defined as an aggregate of 50 or more lymphocytes gathered in the labial gland stroma per 4 mm^2 of tissue.

[4] = system: spleen CD4+ IL-17A+ T lymphocytes; assay: Spleen CD4+ IL-17A+ T lymphocytes in NOD model mice (FIG. 13)
Text: FIG. 13 Effects of CP-25 on spleen CD4^+ IL-17A^+ T lymphocytes in NOD model mice.

[5] = system: NOD model mice; assay: Organic indexes (spleen, submaxillary gland, thymus) in NOD model mice
[6] = system: Sjögren's syndrome model mice (C57BL/6 female mice); assay: Saliva amount in induced Sjögren's syndrome model mice (wet weight method after pilocarpine); conditions: for Saliva amount in SS mice, One week after administration / Saliva amount in SS mice, Two weeks after administration / Saliva amount in SS mice, Pre-administration: Example 1, C57BL/6 SS mice; for Saliva amount in SS mice, Pre-administration / Saliva amount, Pre-administration: baseline before administration; for Saliva amount, One week after: one week of administration; for Saliva amount, Two weeks after: two weeks of administration
Protocol: […] Water intake, saliva amount and submaxillary gland pathological analysis and score were determined respectively, on the day before administration, the 7th day and 14th day after administration. The therapeutic effects of CP-25 on Sjögren's syndrome were evaluated by comparison of changes of each index before and after treatment. 2 Sjögren's syndrome model mice: C57BL/6 female mice housed in a SPF environment with successful modeling (The animal model was made via repeated multi-point intracutaneous injection of submaxillary gland homogenate of homologous mice to tail and back of mice). The animal model was made via repeated multi-point intracutaneously injection of submaxillary gland homogenate of homologous mice to tail and back of mice, and the mice with successful modeling were randomly assigned to each group according to comprehensive conditions of mice. At the same time, the average weight and status of each group of mice should be as close as possible. […] […] High dose of said pharmaceutical should be incubated for half an hour before use. Before measurement, mice were anesthetized via intraperitoneal injection of 0.05 ml of 2.4% pentobarbital sodium, and the satisfactory anesthesia was smooth breathing, corneal reflex disappearance and limb muscle relaxation. After complete anesthesia, a mouse was placed in slightly tilted trendelenburg position, and its body was kept warm using the heater. The mouse was injected intraperitoneally with 0.1 ml of 0.025 mg/ml Pilocarpine, and 5 min later, a weighed cotton ball was placed in the mouth of the mouse for 10 min. After taking the ball out, the saliva weight of mice was measured by the wet weight method.

[7] = system: Sjögren's syndrome model mice; assay: Water intake in Sjögren's syndrome model mice; conditions: therapeutic mice, after a week of administration; model control always tends to rise
Protocol: In this invention, low dose (17.5 mg/kg), medium dose (35 mg/kg) and high dose (70 mg/kg) of CP-25 were respectively administrated by gavage to each of randomly assigned group of Sjögren's syndrome model mice for two weeks. Water intake, saliva amount and submaxillary gland pathological analysis and score were determined respectively, on the day before administration, the 7th day and 14th day after administration. The therapeutic effects of CP-25 on Sjögren's syndrome were evaluated by comparison of changes of each index before and after treatment.
However, the water intake in mice of model control group always tends to rise.

[8] = system: spleen CD11c+ MHC-II+ DC; assay: Spleen CD11c+ MHC-II+ DC in SS model mice (FIG. 9)
Text: FIG. 9 Effects of CP-25 on spleen CD11c^+ MHC-II^+ DC in SS model mice.

[9] = system: spleen CD11c+ CD80+ DC; assay: Spleen CD11c+ CD80+ DC in SS model mice (FIG. 8)
Text: FIG. 8 Effects of CP-25 on spleen CD11c^+ CD80^+ DC in SS model mice.

[10] = system: spleen CD19+ CD27+ B lymphocytes; assay: Spleen CD19+ CD27+ B lymphocytes in SS model mice (FIG. 7)
Text: FIG. 7 Effects of CP-25 on spleen CD19^+ CD27^+ B lymphocytes in SS model mice.

[11] = system: spleen T lymphocytes; assay: Spleen T lymphocyte proliferation in NOD model mice (FIG. 12A)
Text: FIG. 12 Effects of CP-25 on spleen T and B lymphocyte proliferation in NOD model mice.
A: T lymphocytes; B: B lymphocytes

[12] = SS model mice, 17.5 mg/kg by gavage
[13] = SS model mice, 35 mg/kg by gavage

C[C@@]12C[C@@]3(O)O[C@H](O1)C1(COC(=O)c4ccccc4)[C@@H]3CC12OC1OC(COS(=O)(=O)c2ccccc2)C(O)C(O)C1O (stereo partly drawn) [CP-25, Paeoniflorin-6′-O-benzenesulfonate]
Ratio of CD4+ IL-17A+ Th17 lymphocytes [1]: significantly inhibit | Ratio of CD4+ CD25+FOXP3+ Treg lymphocytes [2]: increase | Score: mice with submaxillary gland pathology Grade 0 ([3]; 17.5 mg/kg): 0 | Score: mice with submaxillary gland pathology Grade I ([3]; 17.5 mg/kg): 0 | Score: mice with submaxillary gland pathology Grade II ([3]; 17.5 mg/kg): 0 | Score: mice with submaxillary gland pathology Grade III ([3]; 17.5 mg/kg): 1 | Score: mice with submaxillary gland pathology Grade IV ([3]; 17.5 mg/kg): 3 | Score: mice with submaxillary gland pathology Grade 0 ([3]; 35 mg/kg): 0 | Score: mice with submaxillary gland pathology Grade I ([3]; 35 mg/kg): 0 | Score: mice with submaxillary gland pathology Grade II ([3]; 35 mg/kg): 0 | Score: mice with submaxillary gland pathology Grade III ([3]; 35 mg/kg): 1 | Score: mice with submaxillary gland pathology Grade IV ([3]; 35 mg/kg): 3 | Score: mice with submaxillary gland pathology Grade 0 ([3]; 70 mg/kg): 0 | Score: mice with submaxillary gland pathology Grade I ([3]; 70 mg/kg): 0 | Score: mice with submaxillary gland pathology Grade II ([3]; 70 mg/kg): 0 | Score: mice with submaxillary gland pathology Grade III ([3]; 70 mg/kg): 3 | Score: mice with submaxillary gland pathology Grade IV ([3]; 70 mg/kg): 1^# | Pathological changes in submaxillary gland ([3]; Example 3, dose not given): apparently ameliorate the pathological changes | Pathological changes in submaxillary glands (H&E staining score, rank-sum test) ([3]; high dose of CP-25): apparently ameliorate the pathological changes | Ratio of spleen CD4+ IL-17A+ Th17 lymphocytes [4]: significantly inhibit | Spleen index ([5]; 17.5 mg/kg): 9.5 ± 4.2 mg/g | Submaxillary gland index ([5]; 17.5 mg/kg): 4.5 ± 0.8^ mg/g | Thymus index ([5]; 17.5 mg/kg): 1.3 ± 0.7 mg/g | Spleen index ([5]; 35 mg/kg): 4.2 ± 0.6 mg/g | Submaxillary gland index ([5]; 35 mg/kg): 4.3 ± 0.6 mg/g | Thymus index ([5]; 35 mg/kg): 1.1 ± 0.6 mg/g | Spleen index ([5]; 70 mg/kg): 4.3 ± 0.7 mg/g | Submaxillary gland index ([5]; 70 mg/kg): 4.2 ± 0.6 mg/g | Thymus index ([5]; 70 mg/kg): 1.4 ± 0.5 mg/g | Increasing of submaxillary gland index (in words) ([5]; Example 5): significantly suppress the increasing | Saliva amount in SS mice, One week after administration ([6]; 17.5 mg/kg): 17.83 ± 2.14 mg/each mouse/10 min | Saliva amount in SS mice, Two weeks after administration ([6]; 17.5 mg/kg): 17.67 ± 2.07^ mg/each mouse/10 min | Saliva amount in SS mice, One week after administration ([6]; 35 mg/kg): 18.33 ± 1.97 mg/each mouse/10 min | Saliva amount in SS mice, Two weeks after administration ([6]; 35 mg/kg): 23.17 ± 2.64 mg/each mouse/10 min | Saliva amount in SS mice, One week after administration ([6]; 70 mg/kg): 25.67 ± 1.63 mg/each mouse/10 min | Saliva amount in SS mice, Two weeks after administration ([6]; 70 mg/kg): 26.83 ± 1.47 mg/each mouse/10 min | Saliva amount in SS mice, Pre-administration ([6]; dose group 17.5 mg/kg): 22.67 ± 3.27 mg/each mouse/10 min | Saliva amount in SS mice, Pre-administration ([6]; dose group 35 mg/kg): 23.01 ± 2.37 mg/each mouse/10 min | Saliva amount in SS mice, Pre-administration ([6]; dose group 70 mg/kg): 22.75 ± 3.67 mg/each mouse/10 min | Saliva amount, One week after [6, 12]: 17.83 ± 2.14 mg/10 min | Saliva amount, Two weeks after [6, 12]: 17.67 ± 2.07^ mg/10 min | Saliva amount, One week after [6, 13]: 18.33 ± 1.97 mg/10 min | Saliva amount, Two weeks after [6, 13]: 23.17 ± 2.64 mg/10 min | Saliva amount, One week after ([6]; SS model mice, 70 mg/kg): 25.67 ± 1.63 mg/10 min | Saliva amount, Two weeks after ([6]; SS model mice, 70 mg/kg): 26.83 ± 1.47 mg/10 min | Saliva amount, Pre-administration ([6]; SS model mice, dose group 17.5 mg/kg by gavage): 22.67 ± 3.27 mg/10 min | Saliva amount, Pre-administration ([6]; SS model mice, dose group 35 mg/kg by gavage): 23.01 ± 2.37 mg/10 min | Saliva amount, Pre-administration ([6]; SS model mice, dose group 70 mg/kg): 22.75 ± 3.67 mg/10 min | Curative effect judged on saliva amount after one week of medication ([6]; SS model mice, high dose of CP-25, TGP, Pae, HCQ at the doses of Table 3): had curative effects | Efficacy judged on saliva amount with medication extended to two weeks ([6]; SS model mice, two weeks of medication): more significant efficacy | Saliva amount (in words) ([6]; Sjögren's syndrome mice, Example 1): significantly increase | Onset time of curative effects versus comparators ([6]; Sjögren's syndrome mice, Example 1, saliva amount): earlier than that of TGP, Pae or HCQ | Water intake [7]: begins to drop off | Expression of surface molecular MHC-II+ on spleen CD11c+ DC [8]: significantly inhibit | Expression of surface molecular CD80+ on spleen CD11c+ DC [9]: significantly inhibit | Ratio of spleen CD19+ CD27+ B lymphocytes [10]: significantly increase | Spleen T lymphocyte proliferation [11]: significantly inhibit
